Values of other authors in patent US20250205268A1, “TREATMENT OF VIRUSES WITH ANTIVIRAL NUCLEOSIDES” (priority 2021, published 2025).

Test system: pestivirus and hepacivirus
Details: […] CHEMOTHER, 2003, 47 (1): 244-54; cited from earlier work

SMILES: O=c1nc(NO)ccn1[C@@H]1O[C@H](CO)[C@@H](O)[C@H]1O [β-D-N(4)-hydroxycytidine, 1-((2R,3R,4S,5R)-3,4-dihydroxy-5-(hydroxymethyl)tetrahydrofuran-2-yl)-4-(hydroxyamino)pyrimidin-2 (1H)-one]
- antiviral activities: antipestivirus and antihepacivirus activities
